Source: ChEMBL document CHEMBL1152265, “The design, synthesis and biological evaluation of 7-alkoxy-4-heteroarylamino-3-cyanoquinolines as dual inhibitors of c-Src and iNOS” (Bioorg Med Chem Lett, 2008)

How the values were obtained:
[1] = target: T1, Nitric oxide synthase, inducible (Mus musculus, UniProt P29477); test: Inhibition of iNOS in mouse ANA1 cells; type: cell-based
T1 sequence (P29477 whole entry): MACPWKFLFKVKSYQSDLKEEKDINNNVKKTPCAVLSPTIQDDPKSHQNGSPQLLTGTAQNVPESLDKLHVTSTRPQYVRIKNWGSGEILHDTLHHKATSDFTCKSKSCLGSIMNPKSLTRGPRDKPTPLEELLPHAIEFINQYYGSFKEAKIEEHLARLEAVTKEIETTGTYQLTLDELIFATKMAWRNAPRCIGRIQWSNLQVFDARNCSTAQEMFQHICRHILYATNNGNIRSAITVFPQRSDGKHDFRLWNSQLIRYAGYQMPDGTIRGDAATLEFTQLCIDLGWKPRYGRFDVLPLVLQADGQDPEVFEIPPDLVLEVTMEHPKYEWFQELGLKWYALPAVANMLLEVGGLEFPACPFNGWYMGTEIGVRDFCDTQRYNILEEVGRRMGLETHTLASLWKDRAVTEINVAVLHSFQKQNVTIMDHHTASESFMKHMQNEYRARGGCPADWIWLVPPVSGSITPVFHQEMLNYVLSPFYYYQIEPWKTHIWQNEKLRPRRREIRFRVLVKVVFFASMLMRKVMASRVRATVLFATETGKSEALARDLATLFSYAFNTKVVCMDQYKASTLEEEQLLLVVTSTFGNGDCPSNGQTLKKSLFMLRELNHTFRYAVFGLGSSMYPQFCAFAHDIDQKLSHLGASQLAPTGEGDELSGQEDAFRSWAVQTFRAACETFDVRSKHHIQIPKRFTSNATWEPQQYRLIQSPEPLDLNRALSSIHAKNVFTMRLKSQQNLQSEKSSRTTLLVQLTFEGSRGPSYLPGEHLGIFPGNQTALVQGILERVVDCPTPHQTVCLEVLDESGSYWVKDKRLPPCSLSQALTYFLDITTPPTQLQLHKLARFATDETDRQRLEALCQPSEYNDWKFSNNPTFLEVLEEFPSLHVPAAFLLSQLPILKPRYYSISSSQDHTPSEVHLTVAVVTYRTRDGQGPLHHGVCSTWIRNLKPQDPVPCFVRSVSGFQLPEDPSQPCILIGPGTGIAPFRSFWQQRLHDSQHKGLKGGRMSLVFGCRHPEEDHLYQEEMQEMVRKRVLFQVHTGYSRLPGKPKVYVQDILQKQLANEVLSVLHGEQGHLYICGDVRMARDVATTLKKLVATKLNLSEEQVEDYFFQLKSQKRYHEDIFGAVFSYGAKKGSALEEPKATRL

HT-29 = test: Antiproliferative activity against human HT-29 cells assessed as survival at 10 uM by sulforhodamine B assay; type: functional; details: read-out: Activity
HepG2 = test: Antiproliferative activity against human HepG2 cells assessed as survival at 10 uM by sulforhodamine B assay; type: functional; details: read-out: Activity
AGS = test: Antiproliferative activity against human AGS cells assessed as survival at 10 uM by sulforhodamine B assay; type: functional; details: read-out: Activity
A549 = test: Antiproliferative activity against human A549 cells assessed as survival at 10 uM by sulforhodamine B assay; type: functional; details: read-out: Activity
[2] = target: Proto-oncogene tyrosine-protein kinase Src (Homo sapiens, UniProt P12931); test: Inhibition of cSrc
Sequence of Proto-oncogene tyrosine-protein kinase Src (P12931 2-536 limits assumed): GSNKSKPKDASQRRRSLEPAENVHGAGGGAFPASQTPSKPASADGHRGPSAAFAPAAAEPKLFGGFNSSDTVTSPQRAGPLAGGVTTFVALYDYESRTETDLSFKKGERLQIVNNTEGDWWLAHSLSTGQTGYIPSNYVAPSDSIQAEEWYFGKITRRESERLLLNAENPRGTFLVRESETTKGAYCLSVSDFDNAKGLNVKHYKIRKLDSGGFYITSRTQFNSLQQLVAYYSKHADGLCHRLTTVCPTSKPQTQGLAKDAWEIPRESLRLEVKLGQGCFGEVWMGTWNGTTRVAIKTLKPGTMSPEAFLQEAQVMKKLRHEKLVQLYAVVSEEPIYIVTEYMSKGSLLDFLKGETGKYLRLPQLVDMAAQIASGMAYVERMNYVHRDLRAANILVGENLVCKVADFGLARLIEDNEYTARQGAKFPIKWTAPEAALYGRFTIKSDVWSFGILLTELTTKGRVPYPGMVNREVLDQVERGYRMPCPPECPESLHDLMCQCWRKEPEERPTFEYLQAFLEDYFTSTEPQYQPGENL

PC-3 = test: Antiproliferative activity against human PC3 cells assessed as survival at 10 uM by sulforhodamine B assay; type: functional; details: read-out: Activity

Row | IC50 [1] [µM] | IC50 [2] [µM] | Compound | viability at 10 µM (HT-29) [%] | viability at 10 µM (HepG2) [%] | viability at 10 µM (AGS) [%] | viability at 10 µM (A549) [%] | viability at 10 µM (PC-3) [%]
1 | 10.5 | 0.267 | Cc1cc2c(Nc3ccc4nc(N)sc4c3)c(C#N)cnc2cc1OCCCN1CC(C)CC(C)C1 (configuration not stated) | 60.6 | 42.2 | 65.5 | 53.6 | 63
2 |  |  | COc1cc(Nc2c(C#N)cnc3cc(OCCCN4CCN(C)CC4)c(OC)cc23)c(Cl)cc1Cl [BOSUTINIB] | 2.84 | 9.2 | 3.8 | 9.32 | 7.81
3 | 12.7 | 0.0534 | Cc1cc2c(Nc3ccc4nc(N)sc4c3)c(C#N)cnc2cc1OCCCN1CCC(C)CC1 |  |  |  |  | 
4 | 105 | 0.0207 | COc1cc2c(Nc3ccc4nc(N)sc4c3)c(C#N)cnc2cc1OCCCN1CCNCC1 |  |  |  |  | 
5 | 24.8 | 0.159 | Cc1cc2c(Nc3ccc4nc(N)[nH]c4c3)c(C#N)cnc2cc1OCCCN1CCCC1 |  |  |  |  | 
6 | 31.8 | 0.0811 | Cc1cc2c(Nc3ccc4nc(N)sc4c3)c(C#N)cnc2cc1OCCCN1CCOCC1 |  |  |  |  | 
7 | 89.1 | 0.0366 | Cc1cc2c(Nc3ccc4nc(N)sc4c3)c(C#N)cnc2cc1OCCCN1CC(C)NC(C)C1 (configuration not stated) |  |  |  |  | 
8 | 13.2 | 0.143 | Cc1cc2c(Nc3ccc4nc(N)[nH]c4c3)c(C#N)cnc2cc1OCCCN(C)C |  |  |  |  | 
9 | 37.1 | 0.0506 | Cc1cc2c(Nc3ccc4nc(N)sc4c3)c(C#N)cnc2cc1OCCCN1CCN(C)CC1 | 31.6 | 40.5 | 68.1 | 64.1 | 59.5
10 | 46.8 | 0.042 | CCN(CC)CCCOc1cc2ncc(C#N)c(Nc3ccc4nc(N)sc4c3)c2cc1C |  |  |  |  | 
11 | 17.3 | 0.129 | Cc1cc2c(Nc3ccc4nc(N)sc4c3)c(C#N)cnc2cc1OCCCN1CCNCC1 |  |  |  |  | 
12 | 26.7 | 0.0348 | Cc1cc2c(Nc3ccc4nc(N)sc4c3)c(C#N)cnc2cc1OCCN1CCCCC1 | 42.7 | 55.4 | 61 | 55.4 | 77.7
